How the values were obtained:
Format in all cases: cell-based
[1] = tested on: CYP7A1; assay: CYP7A1 gene expression in liver organoid cultured alone or co-cultured with intestine organoid, bile acid in culture medium; details: compared with DMSO control
Procedure: (§1) Co-culture of the induced liver organoid and the adult stem cell-derived intestine organoid was performed, and the interaction between the two organoids was analyzed.

[2] = tested on: albumin gene; assay: Albumin gene expression in liver organoid cultured alone or co-cultured with intestine organoid, bile acid in culture medium; details: all conditions (liver organoid alone or co-cultured with intestine organoid); compared with DMSO control
Procedure: as §1

[3] = tested on: liver organoid; assay: GSH and ROS distribution by monochlorobimane (mBCL) and dihydroethidium (DHE) assay in liver organoid; details: liver organoid of the THE-F group, APAP 2 to 50 mM
[4] = tested on: liver organoid; assay: Toxicity test of liver organoid under drug concentration gradient (syringe pump and mixing channel); details: cultured 48 hours under gradient formed from 50 mM APAP medium and medium containing no APAP

fluorescence of DHE (reactive oxygen species formation) ([3]; at higher concentrations)	fluorescence of mBCL (intracellular glutathione, GSH) ([3]; at higher concentrations)	SMILES	expression level of CYP7A1 ([1]; liver organoid co-cultured with intestine organoid)	expression level of CYP7A1 ([1]; liver organoid cultured alone)	albumin gene expression [2]	intracellular toxicity and damage of the liver organoid [3]	cytotoxicity in the liver organoid [4]
–	–	C[C@H](CCC(=O)O)[C@H]1CC[C@H]2[C@@H]3[C@H](O)C[C@@H]4C[C@H](O)CC[C@]4(C)[C@H]3CC[C@]12C [CDCA, chenodeoxycholic acid]	a decrease	no difference	no difference in all conditions	–	–
higher	lower	CC(=O)Nc1ccc(O)cc1 [APAP, acetaminophen]	–	–	–	increased with an increasing concentration	increased as the drug concentration increased

Reference: US11725173B2, “Highly efficient organoid culture device and system” (CELLARTGEN INC., priority 2018, dated 2023)
